Measurements taken from the kinase profiling compilation of Christmann-Franck et al. (2016).

What was measured:
Test in all cases: KINOMEscan competition binding
Settings in all cases: compound 10.0 µM
PDGFRB (human) = PDGFRB (human) (UniProt P09619)
BMPR1A (human) = BMPR1A (human) (UniProt P36894)
PAK1 (human) = PAK1 (human) (UniProt Q13153)
FGFR2 (human) = FGFR2 (human) (UniProt P21802)
NEK9 (human) = NEK9 (human) (UniProt Q8TD19)
EPHB4 (human) = EPHB4 (human) (UniProt P54760)
PRKCH (human) = PRKCH (human) (UniProt P24723)
TNK2 (human) = TNK2 (human) (UniProt Q07912)
Chain of TNK2 (human) (Q07912 whole entry, looked up): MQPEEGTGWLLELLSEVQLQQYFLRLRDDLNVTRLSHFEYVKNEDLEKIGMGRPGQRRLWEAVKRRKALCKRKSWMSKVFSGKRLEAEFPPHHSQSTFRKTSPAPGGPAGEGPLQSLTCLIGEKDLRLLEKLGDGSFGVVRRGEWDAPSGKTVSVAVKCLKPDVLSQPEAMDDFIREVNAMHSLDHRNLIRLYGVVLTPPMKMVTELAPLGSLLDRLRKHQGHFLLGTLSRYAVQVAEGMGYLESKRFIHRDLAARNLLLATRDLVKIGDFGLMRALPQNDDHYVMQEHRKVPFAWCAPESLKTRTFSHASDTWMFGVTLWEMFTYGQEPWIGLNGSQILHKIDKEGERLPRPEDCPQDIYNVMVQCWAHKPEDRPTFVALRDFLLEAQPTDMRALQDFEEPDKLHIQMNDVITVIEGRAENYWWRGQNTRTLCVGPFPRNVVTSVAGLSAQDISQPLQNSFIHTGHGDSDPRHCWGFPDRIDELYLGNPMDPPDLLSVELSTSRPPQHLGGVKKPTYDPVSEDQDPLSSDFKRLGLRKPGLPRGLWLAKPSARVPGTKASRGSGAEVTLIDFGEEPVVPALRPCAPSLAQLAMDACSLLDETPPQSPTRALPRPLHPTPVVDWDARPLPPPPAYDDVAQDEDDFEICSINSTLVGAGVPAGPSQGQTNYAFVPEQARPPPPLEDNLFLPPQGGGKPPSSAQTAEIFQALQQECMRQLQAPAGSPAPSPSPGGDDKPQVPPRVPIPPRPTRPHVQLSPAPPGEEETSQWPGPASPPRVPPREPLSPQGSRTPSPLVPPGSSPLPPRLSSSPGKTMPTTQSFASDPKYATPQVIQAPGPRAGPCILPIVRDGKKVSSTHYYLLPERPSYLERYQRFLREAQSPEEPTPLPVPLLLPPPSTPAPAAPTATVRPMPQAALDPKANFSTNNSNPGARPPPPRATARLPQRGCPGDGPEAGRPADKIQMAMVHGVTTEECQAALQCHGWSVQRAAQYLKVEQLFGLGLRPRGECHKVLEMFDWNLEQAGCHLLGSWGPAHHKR

CDK13 (human) = CDK13 (human) (UniProt Q14004)
ROCK2 (human) = ROCK2 (human) (UniProt O75116)
SIK2 (human) = SIK2 (human) (UniProt Q9H0K1)
STK10 (human) = STK10 (human) (UniProt O94804)
ANKK1 (human) = ANKK1 (human) (UniProt Q8NFD2)
PIP5K1C (human) = PIP5K1C (human) (UniProt O60331)
Chain of PIP5K1C (human) (O60331 whole entry, looked up): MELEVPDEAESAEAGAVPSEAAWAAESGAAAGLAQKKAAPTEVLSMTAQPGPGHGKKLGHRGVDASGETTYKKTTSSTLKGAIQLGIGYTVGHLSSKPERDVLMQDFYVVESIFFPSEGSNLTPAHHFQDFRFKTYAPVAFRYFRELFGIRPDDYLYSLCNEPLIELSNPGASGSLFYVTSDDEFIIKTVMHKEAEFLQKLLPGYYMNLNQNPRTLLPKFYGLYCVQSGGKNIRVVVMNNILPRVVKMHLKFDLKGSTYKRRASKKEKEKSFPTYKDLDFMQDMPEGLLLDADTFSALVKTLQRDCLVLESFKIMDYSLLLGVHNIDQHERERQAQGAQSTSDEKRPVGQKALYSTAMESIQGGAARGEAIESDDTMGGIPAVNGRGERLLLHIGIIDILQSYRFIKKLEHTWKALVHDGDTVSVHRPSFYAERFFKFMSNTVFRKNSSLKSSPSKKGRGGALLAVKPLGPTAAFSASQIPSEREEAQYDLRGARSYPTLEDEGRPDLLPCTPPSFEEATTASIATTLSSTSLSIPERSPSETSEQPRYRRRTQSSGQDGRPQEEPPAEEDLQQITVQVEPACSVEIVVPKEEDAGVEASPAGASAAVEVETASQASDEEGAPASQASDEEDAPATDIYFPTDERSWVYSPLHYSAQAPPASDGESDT

CDC42BPG (human) = CDC42BPG (human) (UniProt Q6DT37)
MAP3K4 (human) = MAP3K4 (human) (UniProt Q9Y6R4)
PKMYT1 (human) = PKMYT1 (human) (UniProt Q99640)
MYLK2 (human) = MYLK2 (human) (UniProt Q9H1R3)
MAP3K5 (human) = MAP3K5 (human) (UniProt Q99683)
CAMK2G (human) = CAMK2G (human) (UniProt Q13555)
STK25 (human) = STK25 (human) (UniProt O00506)
LCK (human) = LCK (human) (UniProt P06239)
TTK (human) = TTK (human) (UniProt P33981)
PRKD3 (human) = PRKD3 (human) (UniProt O94806)
GAK (human) = GAK (human) (UniProt O14976)
SIK1 (human) = SIK1 (human) (UniProt P57059)
Chain of SIK1 (human) (P57059 whole entry, looked up): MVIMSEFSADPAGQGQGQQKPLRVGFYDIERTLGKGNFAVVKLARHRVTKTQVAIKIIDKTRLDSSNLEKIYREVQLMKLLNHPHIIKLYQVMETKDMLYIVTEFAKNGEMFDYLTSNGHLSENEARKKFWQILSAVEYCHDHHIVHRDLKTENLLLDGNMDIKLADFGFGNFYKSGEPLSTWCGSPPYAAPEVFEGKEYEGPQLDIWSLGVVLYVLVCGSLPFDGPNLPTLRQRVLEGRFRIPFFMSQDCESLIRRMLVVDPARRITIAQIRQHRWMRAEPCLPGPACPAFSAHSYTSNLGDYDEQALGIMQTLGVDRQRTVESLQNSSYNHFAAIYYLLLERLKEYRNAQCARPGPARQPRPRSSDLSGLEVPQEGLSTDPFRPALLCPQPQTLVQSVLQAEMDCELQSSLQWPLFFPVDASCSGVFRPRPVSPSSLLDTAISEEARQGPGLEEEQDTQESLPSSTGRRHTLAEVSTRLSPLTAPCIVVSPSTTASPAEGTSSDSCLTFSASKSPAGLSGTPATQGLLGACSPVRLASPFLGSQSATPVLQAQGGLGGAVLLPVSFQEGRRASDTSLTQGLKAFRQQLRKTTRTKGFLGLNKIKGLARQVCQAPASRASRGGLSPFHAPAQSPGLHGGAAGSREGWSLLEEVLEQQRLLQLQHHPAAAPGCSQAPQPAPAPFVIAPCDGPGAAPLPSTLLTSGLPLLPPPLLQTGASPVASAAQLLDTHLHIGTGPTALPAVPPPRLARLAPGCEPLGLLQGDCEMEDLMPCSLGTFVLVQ

FGFR3 (human) = FGFR3 (human) (UniProt P22607)
PRKAA1 (human) = PRKAA1 (human) (UniProt Q13131)
PKN2 (human) = PKN2 (human) (UniProt Q16513)
RET (human) = RET (human) (UniProt P07949)
Chain of RET (human) (P07949 whole entry, looked up): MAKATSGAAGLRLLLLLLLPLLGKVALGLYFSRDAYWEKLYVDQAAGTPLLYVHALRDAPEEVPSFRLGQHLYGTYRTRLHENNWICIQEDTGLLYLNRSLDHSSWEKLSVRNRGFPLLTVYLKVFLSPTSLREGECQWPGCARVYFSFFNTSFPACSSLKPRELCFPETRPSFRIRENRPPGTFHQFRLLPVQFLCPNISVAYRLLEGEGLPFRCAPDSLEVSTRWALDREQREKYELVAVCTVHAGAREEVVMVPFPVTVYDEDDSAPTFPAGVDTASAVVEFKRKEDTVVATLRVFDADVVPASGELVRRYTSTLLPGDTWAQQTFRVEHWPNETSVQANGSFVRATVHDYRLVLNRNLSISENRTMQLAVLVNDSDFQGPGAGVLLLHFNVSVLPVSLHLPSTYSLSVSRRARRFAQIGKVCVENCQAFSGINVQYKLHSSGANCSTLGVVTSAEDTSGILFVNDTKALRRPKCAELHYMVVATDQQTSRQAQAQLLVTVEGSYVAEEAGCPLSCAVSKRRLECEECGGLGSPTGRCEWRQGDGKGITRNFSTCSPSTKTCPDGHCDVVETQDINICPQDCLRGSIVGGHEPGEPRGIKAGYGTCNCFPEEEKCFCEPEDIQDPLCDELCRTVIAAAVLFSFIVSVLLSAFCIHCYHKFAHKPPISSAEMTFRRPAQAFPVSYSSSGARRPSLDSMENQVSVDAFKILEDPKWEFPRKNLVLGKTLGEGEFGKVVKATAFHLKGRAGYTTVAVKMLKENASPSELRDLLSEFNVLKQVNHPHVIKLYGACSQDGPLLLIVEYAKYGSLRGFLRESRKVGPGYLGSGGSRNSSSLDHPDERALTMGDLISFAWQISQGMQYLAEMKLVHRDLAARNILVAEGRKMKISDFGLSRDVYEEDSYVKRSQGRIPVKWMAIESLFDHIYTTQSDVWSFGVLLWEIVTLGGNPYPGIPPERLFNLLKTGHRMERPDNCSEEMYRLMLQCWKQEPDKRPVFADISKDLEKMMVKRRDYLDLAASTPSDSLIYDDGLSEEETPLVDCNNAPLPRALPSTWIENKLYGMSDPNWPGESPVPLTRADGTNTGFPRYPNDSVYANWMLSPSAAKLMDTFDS

PKN3 (M.tuberculosis) = PKN3 (M.tuberculosis) (UniProt Q6P5Z2)
IRAK1 (human) = IRAK1 (human) (UniProt P51617)
MAPK6 (human) = MAPK6 (human) (UniProt Q16659)
RPS6KA6 KD2 (human) = RPS6KA6 KD2 (human) (UniProt Q9UK32)
MAP4K5 (human) = MAP4K5 (human) (UniProt Q9Y4K4)
Chain of MAP4K5 (human) (Q9Y4K4 whole entry, looked up): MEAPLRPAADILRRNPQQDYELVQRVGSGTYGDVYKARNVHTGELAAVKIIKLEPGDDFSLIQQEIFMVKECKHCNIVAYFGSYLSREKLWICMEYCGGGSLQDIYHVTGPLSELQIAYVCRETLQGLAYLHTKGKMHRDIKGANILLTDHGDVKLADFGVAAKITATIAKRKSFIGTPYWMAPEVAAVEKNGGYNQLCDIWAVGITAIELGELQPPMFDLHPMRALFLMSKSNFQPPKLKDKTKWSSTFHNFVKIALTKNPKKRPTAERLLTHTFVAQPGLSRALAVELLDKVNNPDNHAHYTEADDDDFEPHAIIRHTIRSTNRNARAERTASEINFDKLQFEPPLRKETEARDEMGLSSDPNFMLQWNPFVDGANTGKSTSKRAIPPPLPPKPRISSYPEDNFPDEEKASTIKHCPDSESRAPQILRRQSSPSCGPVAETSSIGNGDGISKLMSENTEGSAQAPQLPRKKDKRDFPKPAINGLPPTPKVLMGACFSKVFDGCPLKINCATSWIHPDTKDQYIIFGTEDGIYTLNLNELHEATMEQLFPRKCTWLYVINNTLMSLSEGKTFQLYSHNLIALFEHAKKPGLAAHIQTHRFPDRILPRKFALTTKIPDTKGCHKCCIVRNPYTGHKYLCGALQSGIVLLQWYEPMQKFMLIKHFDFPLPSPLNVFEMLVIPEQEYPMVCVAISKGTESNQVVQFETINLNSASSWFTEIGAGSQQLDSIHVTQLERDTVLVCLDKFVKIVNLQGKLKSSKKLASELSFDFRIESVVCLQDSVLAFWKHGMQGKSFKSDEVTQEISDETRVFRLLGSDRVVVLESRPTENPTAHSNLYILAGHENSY

CDK18 (human) = CDK18 (human) (UniProt Q07002)
TEC (human) = TEC (human) (UniProt P42680)
Chain of TEC (human) (P42680 whole entry, looked up): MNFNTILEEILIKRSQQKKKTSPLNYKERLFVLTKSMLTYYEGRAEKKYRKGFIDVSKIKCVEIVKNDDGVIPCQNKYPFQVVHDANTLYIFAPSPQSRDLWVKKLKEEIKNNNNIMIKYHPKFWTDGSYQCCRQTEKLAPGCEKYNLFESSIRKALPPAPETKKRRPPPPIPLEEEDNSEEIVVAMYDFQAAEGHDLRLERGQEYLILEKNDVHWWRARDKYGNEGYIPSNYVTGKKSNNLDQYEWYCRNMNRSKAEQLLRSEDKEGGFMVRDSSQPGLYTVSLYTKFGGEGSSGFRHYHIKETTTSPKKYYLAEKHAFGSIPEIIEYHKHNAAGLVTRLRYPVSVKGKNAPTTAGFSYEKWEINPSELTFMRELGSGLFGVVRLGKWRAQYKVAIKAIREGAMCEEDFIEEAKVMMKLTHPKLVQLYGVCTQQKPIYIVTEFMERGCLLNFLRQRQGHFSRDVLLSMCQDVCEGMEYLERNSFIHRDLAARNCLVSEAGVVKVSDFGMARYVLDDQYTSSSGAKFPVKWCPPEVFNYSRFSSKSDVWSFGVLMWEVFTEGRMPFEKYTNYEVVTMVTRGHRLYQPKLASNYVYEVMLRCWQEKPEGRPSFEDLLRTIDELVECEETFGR

CDKL2 (human) = CDKL2 (human) (UniProt Q92772)
[1] = test system: LRRK2 (human), Q5S007 [G2019S]
KIT (human) = KIT (human) (UniProt P10721)
[2] = test system: FGFR3 (human), P22607 [G697C]

With CCC(=O)N1CCN(c2ccc(-n3c(=O)ccc4cnc5ccc(-c6cnc7ccccc7c6)cc5c43)cc2C(F)(F)F)CC1 the kinase still bound, per cent of control (PDGFRB (human)) was 24%, the kinase still bound, per cent of control (BMPR1A (human)) was 45% and the kinase still bound, per cent of control (PAK1 (human)) was 73%. The kinase still bound, per cent of control (FGFR2 (human)) was 55%, the kinase still bound, per cent of control (NEK9 (human)) was 100% and the kinase still bound, per cent of control (EPHB4 (human)) was 85%. It also gave a kinase still bound, per cent of control (PRKCH (human)) of 92%, a kinase still bound, per cent of control (TNK2 (human)) of 51% and a per cent of control (CDK13 (human)) of 80%. For the same molecule, the kinase still bound, per cent of control (ROCK2 (human)) was 50%, the kinase still bound, per cent of control (SIK2 (human)) was 23% and the kinase still bound, per cent of control (STK10 (human)) was 79%. It also gave a kinase still bound, per cent of control (ANKK1 (human)) of 93%, a kinase still bound, per cent of control (PIP5K1C (human)) of 80% and a kinase still bound, per cent of control (CDC42BPG (human)) of 1.6%. For the same molecule, the kinase still bound, per cent of control (MAP3K4 (human)) was 47%, the kinase still bound, per cent of control (PKMYT1 (human)) was 52% and the kinase still bound, per cent of control (MYLK2 (human)) was 40%. The kinase still bound, per cent of control (MAP3K5 (human)) was 100%, the kinase still bound, per cent of control (CAMK2G (human)) was 79% and the kinase still bound, per cent of control (STK25 (human)) was 84%. The kinase still bound, per cent of control (LCK (human)) was 77%, the kinase still bound, per cent of control (TTK (human)) was 9.6% and the kinase still bound, per cent of control (PRKD3 (human)) was 100%. It also gave a kinase still bound, per cent of control (GAK (human)) of 57%, a kinase still bound, per cent of control (SIK1 (human)) of 80% and a kinase still bound, per cent of control (FGFR3 (human)) of 42%. The kinase still bound, per cent of control (PRKAA1 (human)) was 91%, the kinase still bound, per cent of control (PKN2 (human)) was 65% and the kinase still bound, per cent of control (RET (human)) was 44%. It also gave a kinase still bound, per cent of control (PKN3 (M.tuberculosis)) of 64%, a kinase still bound, per cent of control (IRAK1 (human)) of 100% and a kinase still bound, per cent of control (MAPK6 (human)) of 1.8%. It also gave a kinase still bound, per cent of control (RPS6KA6 KD2 (human)) of 86%, a kinase still bound, per cent of control (MAP4K5 (human)) of 8.1% and a per cent of control (CDK18 (human)) of 97%. The kinase still bound, per cent of control (TEC (human)) was 99%, the per cent of control (CDKL2 (human)) was 58% and the kinase still bound, per cent of control [1] was 99%.

CC(C)n1nc(-c2cc3cc(O)ccc3[nH]2)c2c(N)ncnc21 was tested, and the kinase still bound, per cent of control (PDGFRB (human)) was 0%, the kinase still bound, per cent of control (BMPR1A (human)) was 2.8% and the kinase still bound, per cent of control (PAK1 (human)) was 52%. For the same molecule, the kinase still bound, per cent of control (FGFR2 (human)) was 5.8%, the kinase still bound, per cent of control (NEK9 (human)) was 100% and the kinase still bound, per cent of control (PRKCH (human)) was 10%. The kinase still bound, per cent of control (TNK2 (human)) was 48%, the per cent of control (CDK13 (human)) was 100% and the kinase still bound, per cent of control (ROCK2 (human)) was 60%. The kinase still bound, per cent of control (SIK2 (human)) was 9.4%, the kinase still bound, per cent of control (STK10 (human)) was 0.5% and the kinase still bound, per cent of control (ANKK1 (human)) was 8.8%. It also gave a kinase still bound, per cent of control (PIP5K1C (human)) of 9.8%, a kinase still bound, per cent of control (CDC42BPG (human)) of 86% and a kinase still bound, per cent of control (MAP3K4 (human)) of 85%. The kinase still bound, per cent of control (KIT (human)) was 0.8%, the kinase still bound, per cent of control (PKMYT1 (human)) was 37% and the kinase still bound, per cent of control (MYLK2 (human)) was 43%. The kinase still bound, per cent of control (MAP3K5 (human)) was 100%, the kinase still bound, per cent of control (CAMK2G (human)) was 56% and the kinase still bound, per cent of control (STK25 (human)) was 53%. The kinase still bound, per cent of control (LCK (human)) was 0.95%, the kinase still bound, per cent of control (TTK (human)) was 9.2% and the kinase still bound, per cent of control [2] was 11%. The kinase still bound, per cent of control (PRKD3 (human)) was 94%, the kinase still bound, per cent of control (GAK (human)) was 6.2% and the kinase still bound, per cent of control (SIK1 (human)) was 13%. The kinase still bound, per cent of control (FGFR3 (human)) was 9.2%, the kinase still bound, per cent of control (PRKAA1 (human)) was 43% and the kinase still bound, per cent of control (PKN2 (human)) was 86%. It also gave a kinase still bound, per cent of control (RET (human)) of 0%, a kinase still bound, per cent of control (PKN3 (M.tuberculosis)) of 24% and a kinase still bound, per cent of control (IRAK1 (human)) of 25%. The kinase still bound, per cent of control (MAPK6 (human)) was 52%, the kinase still bound, per cent of control (RPS6KA6 KD2 (human)) was 47% and the kinase still bound, per cent of control (MAP4K5 (human)) was 72%. For the same molecule, the per cent of control (CDK18 (human)) was 100%, the kinase still bound, per cent of control (TEC (human)) was 100% and the per cent of control (CDKL2 (human)) was 75%. It also gave a kinase still bound, per cent of control [1] of 2.6%.
